Experimental findings from patent US8741843B2, “Compositions and methods for inducing angiogenesis” (priority 2006, dated 2014) are described below.

“Also recorded” adds a separate entry of the source. Ends that are not written are not given here.

For assay [1], the system named is endothelial cells. The assay is described as follows: Inhibition of binding of biotinylated ADOPep1 to endothelial cells by motif peptides. Also on record: species or system human. To be noted: normoxia, peptides 0.01, 0.1 or 1 ng/ml, ADOPep1^Biot 2 μg/ml. The procedure:
FIG. 23 is a graph depicting the inhibition of binding of ADOPep1^Biot (2 μg/ml) to endothelial cells by specific peptides corresponding to conserved motifs from the ADOPeps. Endothelial cells were incubated for 2 hours under normoxia conditions in the presence of increasing concentrations (0.01, 0.1 or 1 ng/ml) of peptides having the amino acid sequences corresponding to Motif A (HWRRP; SEQ ID NO:7), Motif B (HWRRA; SEQ ID NO:8), Motif C (AHLLP; SEQ ID NO:6) or non-biotinylated ADOPep1 (SEQ ID NO:2) and then were incubated for 1 hour with biotinylated ADOPep1 (2 μg/ml) and the binding of biotinylated ADOPep1 to endothelial cells was determined using HRP-streptavidin.

In assay [2] the test system is endothelial cells (HUVEC). The assay is described as follows: Migration of endothelial cells under hypoxia (Chemicon QCM 96-well Migration Assay). It is filed as cell-based, human. To be noted: 5 hours hypoxia, 10 ng/ml. The procedure:
FIG. 6 is a graph depicting migration of endothelial cells under hypoxia conditions. Endothelial cells (25,000) were incubated in endothelial cells growth medium free supplements in the migration chamber. ADOPep1 (SEQ ID NO:2), 2 (SEQ ID NO:3) and 3 (SEQ ID NO:4) were added to the feeder tray of the migratory kit at 1, 10 and 100 ng/ml for 5 hours hypoxia. Results were determined by a fluorescence ELISA reader and expressed as increase in percentage migration in Relative fluorescence Units.
FIGS. 26a-b are graphs depicting induction of endothelial cell migration under hypoxia by the ADOPEP motifs. Endothelial cells were incubated for 5 hours under hypoxia conditions in the presence of increasing concentrations of ADOPep1 (red line), peptide motif A (dark blue line), peptide motif B (green line) or peptide motif C (light blue line) and the migration of endothelial cells was detected. FIG. 26a—experiment 1; FIG. 26b—experiment 2.
Endothelial cell migration was evaluated by the Chemicon QCM 96-well Migration Assay (Chemicon International, Calif., USA) according to manufacturer's instructions. This kit utilizes a membrane with an 8 μm pore size. Migratory cells on the bottom of the insert membrane are dissociated from the membrane when incubated with cell detachment buffer provided by the kit. […] For the migration assay, HUVEC from passage 3 were incubated in endothelial cell (EC) growth medium free of supplements. After trypsinization, 25,000 EC were incubated in the migration chamber. ADOPeps were added at concentrations of 1, 10 and 100 ng/ml in the feeder tray for chemoattractant migration assay. Time of incubation was 5 hours for endothelial cells under hypoxic conditions. Results were determined in a Fluorescent ELISA reader at 480/520 nm.

Assay [3] deals with endothelial cells. Kind of assay: Hypoxia-induced apoptosis of endothelial cells (Annexin V FITC/PI FACS). It is filed as cell-based, human. Conditions: 24 hours hypoxia; for effect on hypoxia-induced apoptosis of endothelial cells: peptides 10 ng/ml. The procedure: FIG. 17 is a histogram depicting the effect of ADOPep1 on hypoxia-induced apoptosis of endothelial cells. Endothelial cells were exposed for 24 hours hypoxia in the presence of endothelial cell growth medium supplemented with 5% fetal calf serum (FCS), followed by incubation under hypoxia conditions with ADOPep1 (10 ng/ml) or anti-GRP78 antibody (100 ng/ml). Cells (100,000/tube) were incubated with Annexin-V FITC/PI for endothelial cell apoptosis determination. […] Similarly, anti-GRP78 antibody induced a reduction in apoptosis up to 32%.
FIGS. 24a-d are FACS analyses depicting hypoxia induced apoptosis. Endothelial cells were incubated for 24 hours under hypoxia conditions in the absence (FIG. 24a) or presence of 10 ng/ml of ADOPepe1 (FIG. 24b), peptide of Motif A (FIG. 24c) or peptide of motif C (FIG. 24d) and the level of apoptosis was determined using FACS analysis and the PI (shown on the Y axis)/Annexin V (shown on the X axis) markers.
FIG. 25 is a bar graph depicting the inhibition of hypoxia induced apoptosis by ADOPep 1, Motif A and Motif B. Endothelial cells were incubated for 24 hours under hypoxia conditions in the absence or presence of 10 ng/ml of ADOPepe1, Motif A, Motif B or motif C and the level of apoptosis was determined using FACS analysis and quantified as the percent of Annexin V and PI positive cells. The results represent average±standard deviation of 4 independent experiments.
FIGS. 33a-f are representative FACS analyses depicting a specific inhibition of hypoxia-induced apoptosis of endothelial cells by ADOPep1. Endothelial cells in Petri dishes were incubated for 24 hours with 5% FCS in supplement-free endothelial cell growth medium under normoxia (FIGS. 33a and d), exposed to 24 hours hypoxia (Figures c and f) or incubated under normoxia with 100 micromolar per 100,000 cells CoCl2 (FIGS. 33b and e), in the absence (FIGS. 33a-c) or presence (FIGS. 33d-f) of 10 ng/ml Adopep1 peptide (for 24 hours). Cells were trypsinized and immediately re-suspended in PBS with 5% FCS and 0.1% Na-azide. Samples containing 100,000 cells were tested for apoptosis using the Annexin-FITC (X axis) and propidium iodide (Y axis) kit (Bender Medsystems, Vienna, Austria), according to manufacturer's instructions. Results were analyzed by FACScan (Beckton Dickinson).
EC were incubated for 24 hours with 5% FCS in EC growth media in Petri dishes plates followed by 24 hours incubation under hypoxia conditions with ADOPep1 (10 ng/ml), anti GRP78 antibody (Santa Cruz Biotechnology, Calif., USA) (1 microgram/ml) or recombinant VEGF (10 ng/ml). The Annexin V FITC/PI detects the phosphatidylserin on the apoptotic cells using flow cytometry. Human Annexin V-FITC kit (Bender Medsystems, Vienna, Austria) was used for the measurement of EC apoptosis percentage following manufacturer's instructions. Samples were analyzed using a fluorescence activated cell sorter (FACScan Beckton Dickinson, Calif., USA).

The target in assay [4] is T1, GRP78 on endothelial cells (Homo sapiens, UniProt P11021).
T1 construct: endogenous in cells; host or cells: HUVEC / endothelial cells from umbilical cords, under normoxia or hypoxia
T1 sequence (P11021 19-654): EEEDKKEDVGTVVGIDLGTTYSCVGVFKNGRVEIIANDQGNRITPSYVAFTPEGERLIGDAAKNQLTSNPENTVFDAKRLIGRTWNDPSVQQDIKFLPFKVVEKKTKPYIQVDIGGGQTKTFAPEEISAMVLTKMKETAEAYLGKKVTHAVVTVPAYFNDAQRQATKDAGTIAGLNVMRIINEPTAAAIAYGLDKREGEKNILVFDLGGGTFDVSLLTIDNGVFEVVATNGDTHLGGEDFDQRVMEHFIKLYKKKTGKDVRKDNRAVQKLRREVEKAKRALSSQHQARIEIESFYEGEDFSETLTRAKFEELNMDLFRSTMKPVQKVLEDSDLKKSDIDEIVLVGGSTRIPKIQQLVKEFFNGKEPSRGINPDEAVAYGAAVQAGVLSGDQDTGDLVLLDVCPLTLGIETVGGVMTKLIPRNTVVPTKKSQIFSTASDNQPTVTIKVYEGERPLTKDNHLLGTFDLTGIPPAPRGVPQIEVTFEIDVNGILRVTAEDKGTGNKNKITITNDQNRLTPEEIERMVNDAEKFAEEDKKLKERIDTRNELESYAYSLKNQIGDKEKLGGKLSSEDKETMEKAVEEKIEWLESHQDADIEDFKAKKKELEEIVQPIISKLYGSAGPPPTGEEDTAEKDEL
The assay is described as follows: FACS competition of peptides with GRP78 polyclonal antibody on endothelial cells under hypoxia. The class given is binding. Conditions: hypoxic conditions; listed as motif C. The procedure: Endothelial cells were cultured for 24 hours under hypoxic conditions in endothelial cell growth medium. Cells were removed by trypsin and incubated for 1 hour on ice with increasing concentrations of AdoPep1, Motif A and Motif C peptides. GRP78 polyclonal antibody (2 μg/100,000) was added to the cells for 2 hours on ice. Anti-goat FITC (Jackson ImmunoResearch) was added for 30 minutes on ice. IgG1-FITC was used as the isotype control. The samples were analyzed with a FACScan (Beckton Dickinson). […] FIG. 28d depicts the average percent binding of GRP78 to endothelial cells as a function of peptide amount as determined by 2 independent experiments.

The target of a further assay is GRP78 (Homo sapiens, UniProt P11021). Kind of assay: Immune precipitation of endothelial cell lysate with biotinylated ADOPep1, PAGE, Western blot, mass spectrometry. The class given is binding. Also on record: immune precipitation of endothelial cells lysate with biotinylated ADOPep1 under normoxia and hypoxia conditions; endogenous in cells; host or cells: HUVEC (lysate). To be noted: normoxia and hypoxia. The procedure: HUVEC were seeded in 90 mm Petri dishes plates for 24 hours with complete Endothelial Cell Growth Medium (PromoCell. Heildelberg, Germany). Cells were washed twice with PBS and buffer lysate (50 mM Tris Cl (pH 8, 150 mM Na Cl, 0.02% Na azide, 0.1% SDS, 100 μg/ml PMSF, 1 μg/ml protease inhibitors, 1% NP-40) was added for 20 minutes on ice. After incubation, cells were scraped with a rubber policeman and transferred to a chilled microfuge tube. After centrifugation of lysate at 12,000 g for 2 minutes at 4° C., supernatant was transferred to a fresh microfuge tube and stored at −70° C.
GRP78, sequence (P11021 19-654): as above
Aliquots samples of lysates (500 μl) were incubated with 10 μg of biotinylated ADOPep1 for one hour at 4° C. by gently mixing. Streptavidin Sepharose beads (Amersham Biosciences, Uppsla, Sweeden) (50 μl) were added to the sample for a second incubation one hour at 4° C. by gently mixing. After then, sample was centrifuge for 20 seconds at 12,000 g and the pellet was saved and further washed 3 times. Finally the pellet was suspended in 100 μl of sample buffer for Western blot analysis. For ELISA, protein was eluted by 5 minutes incubation of the sample at room temperature in 1 ml of Tris-Glycin 0.2M (pH 2.2), followed by titration with 1M Tris (pH 9.1). […]

Assay [5] has as its system endothelial cells (HUVEC). Kind of assay: Binding of biotinylated ADOPep to endothelial cells by FACS. Also on record: species or system human. To be noted: 5 micrograms per 100,000 cells. As to the method:
FIG. 3 is a FACS analysis depicting the binding (in percentages) of biotinylated ADOPep1 (ADOPep1^Biot), an ADAM15 derived peptide (SEQ ID NO:2), to endothelial cells (EC) under normoxia. Biotinylated ADOPep1 at 0.05, 0.5 and 5 microgram/ml (μg/ml) were added to endothelial cells.
FIG. 4 is a FACS analysis depicting the binding (in total counts) of Biotinylated ADOPep1 to endothelial cells under normoxia and hypoxia conditions. […] X axis—Intensity of binding.
Human umbilical endothelial cells (HUVEC) were harvested by trypsin and 100,000 cells per sample were suspended in PBS+5% FCS+0.1% Na azide. Endothelial cells were either exposed for 5 hours to hypoxia or remained under normoxia conditions. Cells were stained for 2 hours on ice in dark with 0.05, 0.5, 5 μg/100,000 cells biotinylated ADOPeps. The cells were then washed twice with PBS, following which the cells were stained for 30 minutes with FITC-labeled Streptavidin (Jackson ImmunoResearch Laboratories, PA, USA). After washing, samples were analyzed using a fluorescence activated cell sorter (FACScan Beckton Dickinson, Calif., USA).

Consider “AHLLP [Motif C, 5 amino acid motif peptide without HWRR]”, for which, in the assay with endothelial cells [1], the “inhibition of the binding of ADOPep1^Biot to endothelial cells” value is “moderate inhibition of binding”. Moreover, the “migration of endothelial cells” value in assay [2] is “no significant effect on endothelial cell migration”. The entries for the “effect on hypoxia-induced apoptosis of endothelial cells” value in the assay with endothelial cells [3] and in the assay with endothelial cells [3] (listed as motif C) were “no effect on apoptosis” and “no effect on hypoxia induced apoptosis”, respectively. Also, the “percent apoptosis (PI/Annexin V)” value in the assay on endothelial cells [3] (FIGS. 24a-d, 10 ng/ml, hypoxia alone 79.3%) was determined as 81.1%. Also, in assay [4], the “inhibition of anti GRP78 binding to endothelial cells (in words)” value was “did not inhibit anti GRP78 binding”.

As for “HWRRA [Motif B, 5 amino acid motif peptide]”, the “inhibition of the binding of ADOPep1^Biot to endothelial cells” value with endothelial cells [1] is listed as “significant inhibition”. In addition, in assay [2], the “migration of endothelial cells” value was “induced endothelial cell migration”. The “effect on hypoxia-induced apoptosis of endothelial cells” value in the assay on endothelial cells [3] is “capable of inhibiting the hypoxia induced apoptosis; also recorded: significant inhibition of hypoxia induced apoptosis”.

Turning to “biotinylated ADOPep1: biotinylated ADOPep1 (SEQ ID NO:2) (HWRRAHLLPRLP; also: biotinylated)”, the “protein (receptor) bound by the peptide in endothelial cell lysate” value with GRP78 was “GRP78 protein”. The “binding to endothelial cells under hypoxia versus normoxia” value in assay [5] is “increased under hypoxia”.
